These results are taken from publication PMC3364162 (Journal of Medicinal Chemistry, 2012).

One may read the Papp as the rate of passage across a membrane or cell layer, normalised by area and donor concentration. High values mean ready permeation, low ones poor permeation. As usually defined, the Kd is the constant that tells how readily two partners part at equilibrium. Read a low Kd as a tighter complex.

T1: SRC2-2 coactivator peptide SRC2-2 (Homo sapiens, UniProt Q15596)
T1 chain: KHKILHRLLQDSS

B1: Vitamin D receptor (protein)
chain: MEAMAASTSLPDPGDFDRNVPRICGVCGDRATGFHFNAMTCEGCKGFFRRSMKRKALFTCPFNGDCRITKDNRRHCQACRLKRCVDIGMMKEFILTDEEVQRKREMILKRKEEEALKDSLRPKLSEEQQRIIAILLDAHHKTYDPTYSDFCQFRPPVRVNDGGGSHPSRPNSRHTPSFSGDSSSSCSDHCITSSDMMDSSSFSNLDLSEEDSDDPSVTLELSQLSMLPHLADLVSYSIQKVIGFAKMIPGFRDLTSEDQIVLLKSSAIEVIMLRSNESFTMDDMSWTCGNQDYKYRVSDVTKAGHSLELIEPLIKFQVGLKKLNLHEEEHVLLMAICIVSPDRPGVQDAALIEAIQDRLSNTLQTYIRCRHPPPGSHLLYAKMIQKLADLRSLNEEHSKQYRCLSFQPECSMKLTPLVLEVFGNEIS

Test system in one data set: not listed separately
Description: in vitro. The note with it: PAMPA, pH 7.4. Background: PAMPA measures passive passage across an artificial lipid membrane.
Turning to `Cc1[nH]c2ccccc2c1C(Nc1ccccc1)c1ccc(CCCO)cc1` (stereo not shown) [30i], the Papp was 0.148 ×10⁻⁶ cm/s. The same measure, in the same setting: in the case of `COC(=O)c1ccc2c(c1)C(C)(C)C(/C=C/c1ccc(OC)cc1)=[N+]2C` [compound 1] it was 0.0138 ×10⁻⁶ cm/s; in that of `COc1ccc(/C=C/C2=[N+](C)c3ccc(OC)cc3C2(C)C)cc1` [compound 2], 0.282 ×10⁻⁶ cm/s. On to `CCOc1ccc(/C=C/C2=[N+](C)c3ccc(C(=O)OC)cc3C2(C)C)cc1` [compound 3], for which the apparent permeability coefficient (Papp) is 0.00603 ×10⁻⁶ cm/s. Take `COC(=O)c1ccc(/C=C/C2=[N+](C)c3ccc(OC)cc3C2(C)C)cc1` [compound 4]: the Papp is 0.0117 ×10⁻⁶ cm/s. Same read-out and setting: the value for `COC(=O)c1ccc2c(c1)C(C)(C)C(/C=C/c1ccc(O)cc1)=[N+]2C` [compound 5] was 0.02 ×10⁻⁶ cm/s; that for `CCCS(=O)(=O)c1oc(-c2cccs2)nc1S(=O)(=O)c1ccc(F)cc1` [compound 7] was 0.251 ×10⁻⁶ cm/s. The molecule `CCS(=O)(=O)c1oc(-c2cccs2)nc1S(=O)(=O)c1ccccc1` [compound 8] showed a Papp of 0.214 ×10⁻⁶ cm/s. On the same count and under the same terms, in the case of `CC(C)CS(=O)(=O)c1oc(-c2cccs2)nc1S(=O)(=O)c1ccc(F)cc1` [compound 9] it was 0.166 ×10⁻⁶ cm/s. On the same count and under the same terms, the value for `CC(C)S(=O)(=O)c1oc(-c2cccs2)nc1S(=O)(=O)c1ccccc1` [compound 10] was 0.437 ×10⁻⁶ cm/s. Still for that read-out and setting: the value for `Cc1ccc(S(=O)(=O)ON2C(=O)c3ccccc3C2=O)cc1` [compound 20] was 0.00195 ×10⁻⁶ cm/s; that for `COc1ccc(OC)c(S(=O)(=O)ON2C(=O)c3ccccc3C2=O)c1` [compound 21] was 0.0145 ×10⁻⁶ cm/s; that for `CCc1ccc(S(=O)(=O)ON2C(=O)c3ccccc3C2=O)cc1` [compound 22] was 0.0148 ×10⁻⁶ cm/s.

`Cc1c(C=O)c(C(=O)O)c(C)n1Cc1ccc(Cl)cc1` [compound 23] gave a Papp of 0.00525 ×10⁻⁶ cm/s. On the same count and under the same terms, the value for `O=Cc1nc2ccccc2n1Cc1ccc2ccccc2c1` [compound 24] was 0.513 ×10⁻⁶ cm/s; that for `O=Cc1nc2ccccc2n1Cc1ccc(Cl)cc1Cl` [compound 25] was 0.302 ×10⁻⁶ cm/s; that for `COCC(=O)Oc1c(Sc2ccc(Cl)cc2)c(C)nn1-c1ccccc1` [compound 26] was 0.0331 ×10⁻⁶ cm/s. Same read-out and setting: in the case of `Nc1nc2ccc(S(=O)(=O)N3CCCCC3)cc2s1` [compound 27] it was 0.0525 ×10⁻⁶ cm/s; in that of `CCCCNC(=O)Cn1sc2nc(C)cc(C)c2c1=O` [compound 28], 0.166 ×10⁻⁶ cm/s; in that of `Cc1cccc(N2COc3ccc4ccccc4c3C2)c1` [compound 29], 1.12 ×10⁻⁶ cm/s.

A further data set relates to DU145 cells. Description: Cytotoxicity in DU145 cells. It is filed as cell-based, human.
Settings: not given
Turning to `Cc1[nH]c2ccccc2c1C(Nc1ccc(Cl)cc1)c1ccccc1Cl` (stereo not shown) [31b], the “Concentration above which increased cytotoxicity was observed” value is given as “higher than 20 μM”.

In another data set the target is T1, SRC2-2 coactivator peptide SRC2-2.
Experiment: not given
Settings: not given
Take B1: the Kd came out at 1.7 µM.

For a further data set, the system named is HEK293T cells. In words: Toxicity by CellTiter-Glo. The format is cell-based, human. The note with it: Conc. 62.5 μM. A general note: ATP-based viability assays read luminescence as a measure of living cells.
With `COc1ccc(C(Nc2ccccn2)c2c(C)[nH]c3ccccc23)cc1` (stereo not shown) [compound 11], the “Toxicity (%)” value was 100%. On the same count and under the same terms, in the case of `Cc1ccc(C(Nc2ccccn2)c2c(C)[nH]c3ccccc23)cc1` (stereo not shown) [compound 12] it was 90%; in that of `COc1cccc(C(Nc2ccccn2)c2c(C)[nH]c3ccccc23)c1` (stereo not shown) [compound 13], 60%. As to `Cc1[nH]c2ccccc2c1C(Nc1ccccn1)c1ccc(F)cc1` (stereo not shown) [compound 16], the “Toxicity (%)” value was 100%.

`Cc1[nH]c2ccccc2c1C(Nc1ccccn1)c1cccc(Cl)c1` (stereo not shown) [compound 18]: the “Toxicity (%)” value came out at 100%. In the case of `Cc1ccc(S(=O)(=O)ON2C(=O)c3ccccc3C2=O)cc1` [compound 20], the “Toxicity (%)” value is 50%. Still for that read-out and setting: the value for `COc1ccc(OC)c(S(=O)(=O)ON2C(=O)c3ccccc3C2=O)c1` [compound 21] was 50%; that for `Cc1c(C=O)c(C(=O)O)c(C)n1Cc1ccc(Cl)cc1` [compound 23] was 20%. On the same count and under the same terms, the value for `COCC(=O)Oc1c(Sc2ccc(Cl)cc2)c(C)nn1-c1ccccc1` [compound 26] was 0%.
